According to patent publication US10259812B2, “CGRP receptor antagonists” (Heptares Therapeutics Limited, priority 2015, dated 2019):
Values after ≈ are worked out from the molar mass of the structure shown.

Assays:
human CGRP receptor = target: T1, human CGRP receptor (Homo sapiens, UniProt O60894+Q16602); experiment: cAMP functional assay (HTRF) in SK-N-MC cells; assay type: cell-based; settings: read-out: pKb average (converted)
T1 construct: The human neuroblastoma cell line SK-N-MC endogenously expressing the human CGRP receptor; endogenous in cells; host or cells: SK-N-MC human neuroblastoma cells
T1 sequence (Q16602 23-461): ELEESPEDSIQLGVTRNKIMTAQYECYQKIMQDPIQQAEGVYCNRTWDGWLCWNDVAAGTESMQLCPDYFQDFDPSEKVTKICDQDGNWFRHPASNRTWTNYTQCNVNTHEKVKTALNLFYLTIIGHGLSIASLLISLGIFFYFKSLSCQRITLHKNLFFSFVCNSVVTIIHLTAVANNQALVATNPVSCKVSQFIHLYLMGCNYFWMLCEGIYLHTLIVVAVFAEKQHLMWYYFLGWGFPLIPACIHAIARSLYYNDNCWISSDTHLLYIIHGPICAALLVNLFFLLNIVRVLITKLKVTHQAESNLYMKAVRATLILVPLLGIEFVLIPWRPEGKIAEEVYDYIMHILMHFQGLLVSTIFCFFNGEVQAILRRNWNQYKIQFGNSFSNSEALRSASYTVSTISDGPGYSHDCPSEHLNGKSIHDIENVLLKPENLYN
T1 sequence (O60894 27-148): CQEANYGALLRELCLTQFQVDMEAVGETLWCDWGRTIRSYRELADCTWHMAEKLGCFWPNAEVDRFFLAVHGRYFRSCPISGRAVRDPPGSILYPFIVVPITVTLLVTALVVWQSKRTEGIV
Protocol: cAMP production following receptor activation was determined using the Homogeneous Time-Resolved Fluorescence (HTRF) cAMP dynamic-2 assay (Cisbio, France). The human neuroblastoma cell line SK-N-MC endogenously expressing the human CGRP receptor was seeded at a density of 12,500 cells/well in solid walled 96 well half area plates (Costar, Catalog Number 3688, Corning Life Sciences, Germany). After 16 h incubation at 37° C. media was removed and cells were incubated at 37° C. for 30 min in serum free media containing 500 μM IBMX (Tocris, Abingdon, UK, Catalog Number 2845) and increasing concentrations of test antagonist. Following this cells were challenged with an EC80 concentration of human CGRP (0.3 nM) for a further 30 min at 37° C. and then cAMP production was determined as manufacturer's instructions before plates were read on a PheraStar fluorescence plate reader (BMG LabTech, Germany). IC50 values were derived from the inhibition curve. The pIC50 values (where pIC50=−log10 IC50) were converted to a functional pKb value using a modified Cheng-Prussoff equation where Kd=agonist EC50 and L hot=agonist challenge concentration. The pKb values of certain compounds of the invention are detailed in Table 3.

[1] = Thermodynamic solubility profiling; assay type: physicochemical; settings: 24 h at rt
Protocol: A 50 mM DMSO stock solution of test compound was prepared, and from this, a working solution of 1 mM was prepared by dilution with DMSO. The UV absorbance of working solution was scanned from 220 nm to 1000 nm to identify the wavelength maxima of test compound. The 1 mM working solution was then serially diluted in DMSO to different concentrations to determine linearity/calibration curve. […] The resulting solution was then kept on a RotoSpin shaker at 50 rpm for 24 h at rt before the solution was filtered using 0.45 micron PVDF injector filters in order to remove the insoluble fraction of the compound. Subsequently, 150 uL of the filtrate is taken for quantification using a UV spectrophotometer, acquiring the optical density of standard solutions and test compound at the same wavelength maxima. From the optical density of test compound the thermodynamic solubility is calculated using the linearity/calibration curve and expressed as micromolar (μM). Solubility profiles of certain compounds of the invention are detailed in Table 6.

[2] = Pharmacokinetic profiling in rat; assay type: in vivo, male Sprague Dawley rats; settings: male, Sprague Dawley, plasma, inhaled or intranasal
Protocol: Prior to IN dosing rats were anaesthetised with an intramuscular dose of 25-30 mg/kg ketamine cocktail (ketamine, xylazine hydrochloride and acepromazine maleate in saline) and the dose is introduced over 20-30 s via a polyethylene PE-10 tube inserted approximately 5 mm into the nasal cavity of the rat.
(§1) Following dosing by the routes above blood samples were taken at several time points (typically pre-dose, 0.083, 0.25, 0.5 1, 2, 4, 8 and 24 h) via serial tail vein bleeds (rat) or cephalic or saphenous vein (monkey) from the animal and centrifuged to separate plasma for analysis by LC/MS/MS assay. WinNonlin v6.2 statistics software (Pharsight Corporation, California, USA) was used to generate pharmacokinetic parameters using the non-compartmental model.

[3] = Pharmacokinetic profiling in cynomolgus monkey; assay type: in vivo, male Cynomolgus Monkeys; settings: male, plasma, acidified saline
Protocol: as §1

[4] = target: T2, Human CGRP receptors (consisting of CRLR and RAMP1) (Homo sapiens, UniProt O60894+Q16602); experiment: Radioligand binding assay (3H-telcagepant displacement); settings: 0.5 nM 3H-telcagepant, Sf21 cell membranes, Ki by Cheng-Prussoff; read-out: pKi average (converted)
T2 construct: made in house; host or cells: Sf21 insect cells (baculovirus, pFastBac dual vector); membrane homogenates
T2 sequence (Q16602 23-461): as the sequence (Q16602 23-461) above
T2 sequence (O60894 27-148): as the sequence (O60894 27-148) above
Protocol: Human Calcitonin Receptor Like Receptor (CRLR) and human RAMP1 were cloned into Invitrogen's (ThermoFisher Scientific, UK) pFastBac dual expression vector. Transposition of CRLR/RAMP1 DNA was performed using Invitrogen's Bac-to-Bac Baculovirus Expression Systems. P0 baculovirus was generated by transfecting SF9 cells with bacmid DNA using Cellfectin® II transfection reagent (ThermoFisher Scientific, UK, catalog number 10362-100). Following P0 generation P1 virus was then generated ready for large scale infection and membrane preparation. Sf21 cells were grown in expression medium ESF921 (Expression Systems, USA, catalog number 96-001-01) supplemented with 10% heat-inactivated FBS and 1% Pen/Strep and were infected at a cell density of 2.5×10^6 cells/mL and an MOI of 2. Expression was carried out over 48 h in a shaking incubator set at 27° C. The cell culture was centrifuged at 2,500 rcf for 10 min at 4° C. The pellets were resuspended in cold PBS supplemented with Roche's Complete EDTA-free protease inhibitor cocktail tablets (Roche Applied Sciences, catalog number 05056489001), 1 mM PMSF and 1 mM EDTA. The resuspended cell paste was then centrifuged at 3,273 rcf for 12 min at 4° C. The supernatant was discarded and the pellet frozen at −80° C. The cell pellet from a 4 L culture was resuspended in buffer containing 50 mM Hepes pH 7.5, 150 mM NaCl, 8 Roche EDTA-free protease inhibitor cocktail tablets and 1 mM PMSF. The suspension was left stirring at rt for 1 h and then homogenised for 90 s at 9,500 rpm using a VDI 25 (VWR, USA) homogeniser. The cells were then lysed using a Microfluidizer processor M-110L Pneumatic (Microfluidics, USA). After lysis, the mixture was homogenised for 90 s at 9,500 rpm and then centrifuged at 335 rcf for 10 min. The supernatant was then further ultra-centrifuged at 42,000 rpm for 90 min. […]
Human CGRP receptors (consisting of CRLR and RAMP1) expressed in insect Sf21 cell membrane homogenates were re-suspended in the binding buffer (10 mM HEPES, pH 7.4, 5 mM MgCl2, 0.2% BSA) to a final assay concentration of […]. Saturation isotherms were determined by the addition of various concentrations of ^3H-telcagepant (Ho et al, The Lancet, 2008, 372, 2115) (in a total reaction volume of 250 μL) for 60 min at rt. […] Non-specific binding (NSB) was measured in the presence of 10 nM MK-3207 hydrochloride (CAS No. 957116-20-0). Radioactivity on the filter was counted (1 min) on a microbeta counter after addition of 50 μL of scintillation fluid. […] IC50 values were derived from the inhibition curve and the affinity constant (Ki) values were calculated using the Cheng-Prussoff equation (Cheng et al, Biochem. Pharmacol. 1973, 22, 3099-3108). […]

[5] = aqueous buffer, thermodynamic from solid, pH 6 (Sodium Phosphate Buffer)
[6] = aqueous buffer, thermodynamic from solid, pH 7.4 (PBS buffer)

Row | Kb (human CGRP receptor) [pM] | solubility thermodynamic at 24 h [1, 5] [µM] | bioavailability [2] [%] | clearance ([3]; Cynomolgus monkey iv, 1 mg/kg) [mL/min/kg] | bioavailability ([3]; Cynomolgus monkey sc, 0.5 mg/kg) [%] | solubility thermodynamic at 24 h [1, 6] [µM] | Ki [4] [pM] | solubility thermodynamic at 24 h ([1]; pH 6 (Sodium Phosphate Buffer)) [µM] | solubility thermodynamic at 24 h ([1]; pH 7.4 (PBS buffer)) [µM] | Compound
1 | 251 | 1030 (≈ 688 µg/mL) |  |  |  |  |  |  |  | Cc1cc(C[C@@H](NC(=O)N2CCC(n3c(=O)[nH]c4ncccc43)CC2)C(=O)N2CCC3(CCN(C4CCNCC4)CC3)C2)cc2cn[nH]c12 [Example 1, N-{(2R)-3-(7-methyl-1H-indazol-5-yl)-1-oxo-1-[8-(piperidin-4-yl)-2,8-diazaspiro[4.5]dec-2-yl]propan-2-yl}-4-(2-oxo-2,3-dihydro-1H-imidazo[4,5-b]pyridin-1-yl)piperidine-1-carboxamide]
2 | 794 | 1350 (≈ 918 µg/mL) |  |  |  | 1150 (≈ 783 µg/mL) | 79.4 |  |  | Cc1cc(C[C@@H](NC(=O)N2CCC(N3Cc4ccccc4NC3=O)CC2)C(=O)N2CCC3(CCN(C4CCNCC4)CC3)C2)cc2cn[nH]c12 [Example 4, N-{(2R)-3-(7-methyl-1H-indazol-5-yl)-1-oxo-1-[8-(piperidin-4-yl)-2,8-diazaspiro[4.5]dec-2-yl]propan-2-yl}-4-(2-oxo-1,4-dihydroquinazolin-3(2H)-yl)piperidine-1-carboxamide]
3 | 631 | 1500 (≈ 1020 µg/mL) |  |  |  | 1570 (≈ 1070 µg/mL) |  |  |  | CN[C@H](C)C(=O)N1CCC2(CC1)CCN(C(=O)[C@@H](Cc1cc(C)c3[nH]ncc3c1)NC(=O)N1CCC(N3Cc4ccccc4NC3=O)CC1)C2 [Example 6, N-[(2R)-1-[8-(N-methyl-D-alanyl)-2,8-diazaspiro[4.5]dec-2-yl]-3-(7-methyl-1H-indazol-5-yl)-1-oxopropan-2-yl]-4-(2-oxo-1,4-dihydroquinazolin-3(2H)-yl)piperidine-1-carboxamide]

Second part, the compound before the results:

Row | Compound | Kb (human CGRP receptor) [pM] | solubility thermodynamic at 24 h [1, 5] [µM] | bioavailability [2] [%] | clearance ([3]; Cynomolgus monkey iv, 1 mg/kg) [mL/min/kg] | bioavailability ([3]; Cynomolgus monkey sc, 0.5 mg/kg) [%] | solubility thermodynamic at 24 h [1, 6] [µM] | Ki [4] [pM] | solubility thermodynamic at 24 h ([1]; pH 6 (Sodium Phosphate Buffer)) [µM] | solubility thermodynamic at 24 h ([1]; pH 7.4 (PBS buffer)) [µM]
4 | CN[C@H](C)C(=O)N1CCC2(CC1)CCN(C(=O)[C@@H](Cc1cc(C)c3[nH]ncc3c1)NC(=O)N1CCC(c3cc4ccccc4[nH]c3=O)CC1)C2 [Example 2, N-[(2R)-1-[8-(N-methyl-D-alanyl)-2,8-diazaspiro[4.5]dec-2-yl]-3-(7-methyl-1H-indazol-5-yl)-1-oxopropan-2-yl]-4-(2-oxo-1,2-dihydroquinolin-3-yl)piperidine-1-carboxamide] | 1260 | 1290 (≈ 876 µg/mL) | 20 | 8 | 100 | 800 (≈ 545 µg/mL) |  |  | 
5 | CN[C@H](C)C(=O)N1CCC2(CC1)CCN(C(=O)[C@@H](Cc1cc(C)c3[nH]ncc3c1)NC(=O)N1CCC(n3c(=O)[nH]c4ncccc43)CC1)C2 [Example 3, N-[(2R)-1-[8-(N-methyl-D-alanyl)-2,8-diazaspiro[4.5]dec-2-yl]-3-(7-methyl-1H-indazol-5-yl)-1-oxopropan-2-yl]-4-(2-oxo-2,3-dihydro-1H-imidazo[4,5-b]pyridin-1-yl)piperidine-1-carboxamide] | 631 | 1430 (≈ 961 µg/mL) |  |  |  | 1550 (≈ 1040 µg/mL) | 79.4 |  | 
6 | CN[C@H](C)C(=O)N1CCC2(CC1)CCN(C(=O)[C@@H](Cc1cc(C)c3[nH]ncc3c1)NC(=O)N1CCC3(CC1)OC(=O)Nc1ncccc13)C2 [Example 5, N-[(2R)-1-[8-(N-methyl-D-alanyl)-2,8-diazaspiro[4.5]dec-2-yl]-3-(7-methyl-1H-indazol-5-yl)-1-oxopropan-2-yl]-2′-oxo-1′,2′-dihydro-1H-spiro[piperidine-4,4′-pyrido[2,3-d][1,3]oxazine]-1-carboxamide] | 501 | 1580 (≈ 1060 µg/mL) |  |  |  | 1460 (≈ 979 µg/mL) | 100 |  | 
7 | Cc1cc(C[C@@H](NC(=O)N2CCC(n3c(=O)[nH]c4ncccc43)CC2)C(=O)N2CCC3(CCN(c4ccncc4)CC3)C2)cc2cn[nH]c12 [Example 7, N-{(2R)-3-(7-methyl-1H-indazol-5-yl)-1-oxo-1-[8-(pyridin-4-yl)-2,8-diazaspiro[4.5]dec-2-yl]propan-2-yl}-4-(2-oxo-2,3-dihydro-1H-imidazo[4,5-b]pyridin-1-yl)piperidine-1-carboxamide] | 398 | 3630 (≈ 2400 µg/mL) |  |  |  | 2160 (≈ 1430 µg/mL) | 50.1 |  | 
8 | NCCCC[C@H](NC(=O)[C@@H](Cc1cc(Br)c(O)c(Br)c1)NC(=O)N1CCC(N2Cc3ccccc3NC2=O)CC1)C(=O)N1CCN(c2ccncc2)CC1 [olcegepant, reference compound] |  |  |  |  |  |  |  | 150 (≈ 130 µg/mL) | 431 (≈ 375 µg/mL)
